From patent US6605424B1, “Method of detecting inhibitors of agonist-specific desensitization” (Duke University, priority 1989, dated 2003)
No end group written: not given here.

Tests used:
[1] = molecular target: protein kinase C and cyclic nucleotide-dependent protein kinases; conditions: cited from earlier work
[2] = tested on: β2ARs in permeabilized A431 cells; test: Desensitization of β2ARs in permeabilized A431 cells; format: cell-based, human
Description: Permeabilization of cells was accomplished as follows. Human epidermoid carcinoma A431 cells were grown to about 95% confluence in Dulbecco's modified Eagle's medium supplemented with 10% fetal calf serum. Cells were harvested with collagenase, washed three times with calcium-free phosphate-buffered saline (PBS), then washed twice in 150 mM potassium glutamate/10 mM Hepes/5 mM EGTA/7 mM MgCl2, pH 7.1 (KG buffer), and finally resuspended in KG buffer supplemented with 5 mM glucose and 2 mM ATP (KG-A buffer) at a density of 4×10^7 cells per ml.
At 4×10^7 cells per ml, about 0.015% digitonin was necessary to achieve permeabilization of >95% cells as assessed by staining with trypan blue. In all experiments, digitonin was added stepwise until >95% of the cells were trypan blue positive.

βAR kinase [3] = molecular target: T1, βAR kinase (Bos taurus, UniProt P21146); test: Phosphorylation of purified reconstituted β2ARs by purified βAR kinase (Example II); format: biochemical, bovine
T1 construct: βAR kinase was purified from bovine cerebral cortex; from tissue; host or cells: bovine cerebral cortex
T1 sequence (P21146 1-689): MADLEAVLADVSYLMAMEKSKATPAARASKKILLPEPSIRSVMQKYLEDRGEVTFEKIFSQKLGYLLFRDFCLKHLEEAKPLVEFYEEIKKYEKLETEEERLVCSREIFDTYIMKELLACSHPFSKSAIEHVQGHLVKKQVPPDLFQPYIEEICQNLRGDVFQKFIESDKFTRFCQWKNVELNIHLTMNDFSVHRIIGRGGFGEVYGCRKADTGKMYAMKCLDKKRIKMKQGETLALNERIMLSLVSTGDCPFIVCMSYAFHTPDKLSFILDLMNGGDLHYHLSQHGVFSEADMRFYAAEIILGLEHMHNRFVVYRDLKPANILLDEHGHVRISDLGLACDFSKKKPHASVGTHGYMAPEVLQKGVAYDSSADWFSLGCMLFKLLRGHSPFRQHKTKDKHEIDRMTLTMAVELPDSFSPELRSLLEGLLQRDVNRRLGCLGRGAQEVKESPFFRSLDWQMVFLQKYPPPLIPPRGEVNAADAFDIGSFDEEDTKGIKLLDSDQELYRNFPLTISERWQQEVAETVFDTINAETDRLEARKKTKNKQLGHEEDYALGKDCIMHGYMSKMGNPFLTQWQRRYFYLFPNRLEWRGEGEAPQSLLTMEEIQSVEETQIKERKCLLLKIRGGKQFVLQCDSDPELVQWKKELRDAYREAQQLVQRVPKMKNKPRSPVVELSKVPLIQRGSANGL
Description: FIG. 7. […] (Inset) Relevant section of a representative autoradiogram. Data are means±SEM of three independent experiments. […] Desensitization was measured as the percent loss of stimulation by 10 μM (−)-isoproterenol of adenylyl cyclase activity in membranes. […] Data are means±SEM of four independent experiments.
Purified β2ARs were inserted into phosphatidylcholine vesicles by chromatography on Extracti-gel, followed by polyethylene glycol treatment and centrifugation at 280,000×g for 90 min (Cerione et al (1984) Biochemistry 23:4519-4525). Phosphorylation of the reconstituted receptors by purified βAR kinase was done in the presence of 50 μM (−)-isoproterenol as described (Benovic et al (1987) J. Biol. Chem. 262:9026-9032). Subsequently, the samples were subjected to sodium dodecyl sulfate polyacrylamide gel electrophoresis on 10% gels (Laemmli (1970) Nature 227:680-685). The phosphorylated β2ARs were visualized by autoradiography, and the corresponding bands were cut out and their content of ^32P quantified.

protein kinase A = protein kinase A (Homo sapiens, UniProt P17612); test: Peptides as substrates for protein kinase A; format: biochemical
βAR kinase [4] = molecular target: T1, βAR kinase; test: Phosphorylation of rhodopsin (urea-treated rod outer segments) by βAR kinase; format: biochemical, bovine; conditions: read-out: IC50 (concentration of compound which gave 50% inhibition of βAR kinase); rhodopsin as substrate
Description: (§1) βAR kinase was purified from bovine cerebral cortex by modification of procedure of Benovic et al (J. Biol. Chem. (1987) 262:9026-9032). Briefly, 250 g of bovine cerebral cortex were homogenized with a Brinkmann tissue disrupter and centrifuged (40,000×g, 30 min). The supernatant was then precipitated with 13-26% ammonium sulfate. This material was initially chromatographed on a Ultrogel AcA34 column equilibrated with 5 mM Tris-HCl, pH 7.5, 2 mM EDTA, 10 μg/ml leupeptin, 5 μg/ml pepstatin, 10 μg/ml benzamidine, 0.2 mM phenylmethylsulfonyl fluoride (buffer A). The peak activity was diluted with an equal volume of buffer A containing 0.04% Triton X-100 before being applied to a DEAE-Sephacel column. Elution was accomplished with a 0-80 mM NaCl gradient in buffer A containing 0.02% Triton X-100. The peak activity was then applied to a CM-Fractogel column and eluted with a 0-100 mM NaCl gradient in buffer A containing 0.02% Triton X-100. The purified kinase is stable at 4° C. for several months. For these studies the βAR kinase preparations were >75% pure.
(§2) Rod outer segments were prepared from bovine retinas by stepwise sucrose gradient centrifugation (Wilden et al Biochemistry (1982) 21:3014-3022). Rhodopsin kinase-free rod outer segments were prepared by treatment with 5 M urea (Shichi et al J. Biol. Chem. (1978) 253:7040-7046) and consisted of ˜95% rhodopsin, as assessed by Coomassie Blue staining of sodium dodecyl sulfate-polyacrylamide gels.
(§3) Urea-treated rod outer segments were phosphorylated with βAR kinase as follows. Urea-treated rod outer segments (˜4 μg of rhodopsin) were incubated with βAR kinase (˜0.1 μg) for 10-15 min at 30° C. in the presence of 40 mM Tris-HCl, pH 7.4, 10 mM NaCl, 5 mM MgCl2, 1.5 mM EDTA, and 65 μM ATP (˜1 cpm/fmol) (total reaction volume was 40 μl). Reactions were stopped by the addition of 40 μl of sodium dodecyl sulfate sample buffer (see below) followed by sodium dodecyl sulfate-polyacrylamide gel electrophoresis. After autoradiography, the phosphorylated rhodopsin bands were excised and counted.
Sodium dodecyl sulfate-polyacrylamide gel electrophoresis was performed by the method of Laemmli (Nature (1970) 227:680-685) using 10% homogeneous polyacrylamide slab gels. Sample buffer contained 8% sodium dodecyl sulfate, 10% glycerol, 5% 3-mercaptoethanol, 25 mM Tris-HCl, pH 6.5, and 0.003% bromphenol blue. After electrophoresis, gels were dried with a Bio-Rad gel dryer prior to autoradiography.

βAR kinase [5] = molecular target: T1, βAR kinase; test: Reversal of heparin inhibition of βAR kinase by polycations; format: biochemical, bovine; conditions: read-out: EC50 for reversal of heparin inhibition; in the presence of 1.1 μM heparin
Description: as §3

[6] = substrate: CC[C@H](C)[C@H](NC(=O)[C@H](Cc1ccc(O)cc1)NC(=O)[C@H](CC(N)=O)NC(=O)[C@H](CC(C)C)NC(=O)[C@@H]1CCCN1C(=O)[C@@H](NC(=O)[C@H](CCCNC(=N)N)NC(=O)[C@H](CC(C)C)NC(=O)[C@H](CCCCN)NC(=O)[C@H](CCCCN)NC(=O)[C@H](Cc1c[nH]cn1)NC(=O)[C@H](CCC(N)=O)NC(=O)[C@@H](NC(=O)[C@@H](NC(=O)[C@@H](N)C(C)C)[C@@H](C)O)C(C)C)[C@@H](C)O)C(=O)O; test: Phosphorylation of rhodopsin (urea-treated rod outer segments) by βAR kinase; format: biochemical, bovine; conditions: other: rhodopsin as substrate, absence of heparin; 30.0 °C
Description: as §1, with “The peak activity was then applied to a CM-Fractogel column and eluted with a 0-100 mM NaCl gradient in buffer A containing 0.02% Triton X-100. The purified kinase is stable at 4° C. for several months. For these studies the βAR kinase preparations were >75% pure.” left out
as §2
Urea-treated rod outer segments were phosphorylated with βAR kinase as follows. […] After autoradiography, the phosphorylated rhodopsin bands were excised and counted. […]

CC1CNCCN1S(=O)(=O)c1cccc2cnccc12 (stereo not shown) [Peptide H7, 1-5(isoquinolinesulfonyl)-2-methylpiperazine]
Ki [1]: ~5 µM | Inhibition of Desensitization, % ([2]; 100 μM): 22 ± 14% | inhibition at 1 µM ([2]; Homo sapiens, A-431, 1 μM): 0% | inhibition at 10 µM ([2]; Homo sapiens, A-431, 10 μM): 7 ± 5% | inhibition at 100 µM ([2]; Homo sapiens, A-431, 100 μM): ~20% | inhibition at 1 µM (βAR kinase [3]; 1 μM): 3 ± 4% | inhibition at 10 µM (βAR kinase [3]; 10 μM): 2 ± 7% | Inhibition of βAR kinase, % (βAR kinase [3]; 100 μM): 19 ± 6% | inhibition at 100 µM (βAR kinase [3]; 100 μM): ~20%

QELLCLRRSSSKAYGNGYS [CT-1 (337-355)]
substrate for protein kinase A (protein kinase A): serve as substrates for protein kinase A

polylysine
IC50 (βAR kinase [4]): ~69 µM | EC50 (βAR kinase [5]): ~2.8 µM

B1: βAR kinase (Bos taurus) (protein)
chain: T1 sequence (P21146 1-689)
notes: βAR kinase was purified from bovine cerebral cortex; from tissue; host or cells: bovine cerebral cortex
Km [6]: 5.3 µM
